Source: PMC10698726 (Molecular Pharmaceutics, 2023)
Read-outs that look alike come from different tables or passages of the source.

Tests used:
OCT1 [1] = target: T1, OCT1 (Homo sapiens, UniProt O15245); assay: Concentration-dependent uptake of model substrates, OCT1-overexpressing HEK293 cells; format: in vitro ADME; design: expressed in transfected cells; host or cells: HEK293; details: this study; for Clint ± SEM: vmax over Km
T1 sequence (O15245 1-554): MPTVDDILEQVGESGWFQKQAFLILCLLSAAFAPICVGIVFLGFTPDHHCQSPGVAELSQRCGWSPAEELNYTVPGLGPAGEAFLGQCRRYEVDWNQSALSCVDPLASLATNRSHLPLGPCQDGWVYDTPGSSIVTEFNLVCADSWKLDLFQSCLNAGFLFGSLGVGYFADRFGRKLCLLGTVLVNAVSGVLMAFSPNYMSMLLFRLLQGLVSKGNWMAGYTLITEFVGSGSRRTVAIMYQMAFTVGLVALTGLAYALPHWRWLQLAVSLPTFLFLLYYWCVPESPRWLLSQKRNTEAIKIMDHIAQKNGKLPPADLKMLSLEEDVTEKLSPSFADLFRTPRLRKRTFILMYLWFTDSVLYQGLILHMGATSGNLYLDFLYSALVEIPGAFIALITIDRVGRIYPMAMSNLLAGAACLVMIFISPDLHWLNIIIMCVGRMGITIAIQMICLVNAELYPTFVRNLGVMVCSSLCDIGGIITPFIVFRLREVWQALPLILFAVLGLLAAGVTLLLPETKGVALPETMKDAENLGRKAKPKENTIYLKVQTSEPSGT
Protocol: (§1) Koepsell and Gorbulev (University of Würzburg, Germany).
(§2) Prior to inhibition studies, the used model substrates were validated in concentration-dependent uptake experiments if no literature data were available (Table S2 and Figures S2 and S3). Thereby, we ensured that the model substrate concentration used in the subsequent inhibition experiments was sufficiently below the Km value of its uptake kinetics. […] On the day of the experiment, the cells were washed once with prewarmed to 37 °C HBSS (Thermo Fisher Scientific, Darmstadt, Germany) supplemented with 10 mM HEPES and pH adjusted to 7.4 (Sigma-Aldrich)—hereafter termed HBSS+. For concentration-dependent experiments, the cells were incubated with increasing substrate concentrations for 2 min. Uptake was terminated by adding ice-cold HBSS+. Afterward, the cells were washed twice with ice-cold HBSS+, and cell lysis was done with 80% (v/v) acetonitrile (LGC Standards, Wesel, Germany) to which an internal standard for eventual LC–MS/MS analysis had been added. Intracellularly accumulated substrates were then quantified by LC–MS/MS analysis, and calibration was performed with known concentrations of the respective substances. All uptake data were normalized to the number of seeded cells by measuring the total protein content in radioimmunoprecipitation assay buffer-lysed cells in a bicinchoninic acid assay.[29]

OCT2 [2] = target: T2, OCT2 (Homo sapiens, UniProt O15244); assay: Inhibition of model substrate uptake in OCT2-overexpressing HEK293 cells; details: for IC50: IC50 [μM], OCT2, Table 1
T2 sequence (O15244 1-555): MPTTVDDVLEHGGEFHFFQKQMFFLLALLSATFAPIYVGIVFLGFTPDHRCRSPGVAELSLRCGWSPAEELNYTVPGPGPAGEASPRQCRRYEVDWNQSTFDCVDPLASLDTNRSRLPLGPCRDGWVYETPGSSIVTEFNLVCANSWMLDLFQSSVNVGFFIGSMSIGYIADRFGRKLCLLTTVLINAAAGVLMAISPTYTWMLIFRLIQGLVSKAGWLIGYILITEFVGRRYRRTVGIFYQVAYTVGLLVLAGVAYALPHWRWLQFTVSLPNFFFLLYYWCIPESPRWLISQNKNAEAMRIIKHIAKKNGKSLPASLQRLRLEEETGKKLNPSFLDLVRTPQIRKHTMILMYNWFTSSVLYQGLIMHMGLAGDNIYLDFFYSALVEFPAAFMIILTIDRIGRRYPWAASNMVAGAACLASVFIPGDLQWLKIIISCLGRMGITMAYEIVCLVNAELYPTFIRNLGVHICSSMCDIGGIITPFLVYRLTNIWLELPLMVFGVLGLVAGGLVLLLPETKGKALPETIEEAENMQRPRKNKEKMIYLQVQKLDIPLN

OCT2 [3] = target: T2, OCT2; assay: Concentration-dependent uptake of model substrates, OCT2-overexpressing HEK293 cells; format: in vitro ADME; design: expressed in transfected cells; host or cells: HEK293; details: this study; for Clint ± SEM: vmax over Km
Protocol: as §1, §2

OCT3 [4] = target: T3, OCT3 (Homo sapiens, UniProt O75751); assay: Concentration-dependent uptake of model substrates, OCT3-overexpressing HEK293 cells; format: in vitro ADME; details: this study; for Clint ± SEM: vmax over Km
T3 construct: expressed in transfected cells; host or cells: HEK293
T3 sequence (O75751 1-556): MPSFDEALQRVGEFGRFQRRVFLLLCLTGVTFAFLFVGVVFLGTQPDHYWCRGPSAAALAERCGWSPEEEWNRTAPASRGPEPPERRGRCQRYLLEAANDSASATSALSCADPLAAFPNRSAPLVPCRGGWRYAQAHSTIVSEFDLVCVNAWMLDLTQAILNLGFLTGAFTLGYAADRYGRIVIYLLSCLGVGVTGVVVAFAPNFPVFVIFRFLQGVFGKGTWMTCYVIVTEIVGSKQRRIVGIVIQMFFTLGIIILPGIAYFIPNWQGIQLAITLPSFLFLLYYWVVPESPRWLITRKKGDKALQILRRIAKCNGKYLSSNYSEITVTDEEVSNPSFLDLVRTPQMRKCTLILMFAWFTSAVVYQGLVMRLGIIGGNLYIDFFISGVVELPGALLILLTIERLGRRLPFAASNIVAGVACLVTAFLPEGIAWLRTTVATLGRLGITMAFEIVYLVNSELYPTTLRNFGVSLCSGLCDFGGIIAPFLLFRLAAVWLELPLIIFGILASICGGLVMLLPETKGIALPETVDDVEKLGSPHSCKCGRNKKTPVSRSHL
Protocol: as §1, §2

OCT1 [5] = target: T1, OCT1; assay: Inhibition of model substrate uptake in OCT1-overexpressing HEK293 cells; format: cell-based; design: expressed in transfected cells; host or cells: HEK293; details: OCT1, 20 μM inhibitor, 5 min; for inhibition at 5 min, 20 μM: human, OCT1-overexpressing HEK293 cells
Protocol: as §1
Fluorescence quantification was performed in technical duplicates.

OCT3 [6] = target: T3, OCT3; assay: Inhibition of model substrate uptake in OCT3-overexpressing HEK293 cells; format: cell-based; details: 20 μM inhibitor, 5 min
Summary of the method: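 Transporter-overexpressing HEK293 cells were incubated 5 min in HBSS+ with 2 μM model substrate, with or without 20 μM inhibitor or increasing inhibitor concentrations. Uptake was read as ASP^+ fluorescence or by LC–MS/MS, with empty-vector uptake subtracted. IC50 came from a Hill fit of activity versus log concentration.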

[7] = oral administration, cited from earlier work
DAT = target: T4, DAT (Homo sapiens, UniProt Q01959); assay: Concentration-dependent MPP+ uptake, DAT-overexpressing HEK293 cells; format: in vitro ADME; details: this study
T4 construct: expressed in transfected cells; host or cells: HEK293
T4 sequence (Q01959 whole entry): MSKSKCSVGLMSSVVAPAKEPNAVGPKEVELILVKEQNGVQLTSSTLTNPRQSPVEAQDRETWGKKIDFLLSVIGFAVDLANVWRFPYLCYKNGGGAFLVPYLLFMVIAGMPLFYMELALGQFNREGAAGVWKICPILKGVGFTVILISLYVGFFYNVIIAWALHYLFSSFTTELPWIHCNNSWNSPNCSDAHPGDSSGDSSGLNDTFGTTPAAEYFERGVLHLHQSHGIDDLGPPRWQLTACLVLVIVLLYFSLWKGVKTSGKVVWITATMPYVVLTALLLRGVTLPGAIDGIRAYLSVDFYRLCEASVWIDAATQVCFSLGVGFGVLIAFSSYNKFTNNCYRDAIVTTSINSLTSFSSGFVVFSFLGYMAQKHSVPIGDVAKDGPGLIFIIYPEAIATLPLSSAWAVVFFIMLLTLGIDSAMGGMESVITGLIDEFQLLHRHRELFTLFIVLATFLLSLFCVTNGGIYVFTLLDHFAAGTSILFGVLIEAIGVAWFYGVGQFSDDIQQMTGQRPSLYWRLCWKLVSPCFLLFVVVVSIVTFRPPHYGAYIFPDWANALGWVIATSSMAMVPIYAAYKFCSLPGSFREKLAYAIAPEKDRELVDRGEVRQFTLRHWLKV
Protocol: as §1, §2

SERT = target: T5, SERT (Homo sapiens, UniProt P31645); assay: Concentration-dependent MPP+ uptake, SERT-overexpressing HEK293 cells; format: in vitro ADME; details: this study
T5 construct: expressed in transfected cells; host or cells: HEK293
T5 sequence (P31645 whole entry): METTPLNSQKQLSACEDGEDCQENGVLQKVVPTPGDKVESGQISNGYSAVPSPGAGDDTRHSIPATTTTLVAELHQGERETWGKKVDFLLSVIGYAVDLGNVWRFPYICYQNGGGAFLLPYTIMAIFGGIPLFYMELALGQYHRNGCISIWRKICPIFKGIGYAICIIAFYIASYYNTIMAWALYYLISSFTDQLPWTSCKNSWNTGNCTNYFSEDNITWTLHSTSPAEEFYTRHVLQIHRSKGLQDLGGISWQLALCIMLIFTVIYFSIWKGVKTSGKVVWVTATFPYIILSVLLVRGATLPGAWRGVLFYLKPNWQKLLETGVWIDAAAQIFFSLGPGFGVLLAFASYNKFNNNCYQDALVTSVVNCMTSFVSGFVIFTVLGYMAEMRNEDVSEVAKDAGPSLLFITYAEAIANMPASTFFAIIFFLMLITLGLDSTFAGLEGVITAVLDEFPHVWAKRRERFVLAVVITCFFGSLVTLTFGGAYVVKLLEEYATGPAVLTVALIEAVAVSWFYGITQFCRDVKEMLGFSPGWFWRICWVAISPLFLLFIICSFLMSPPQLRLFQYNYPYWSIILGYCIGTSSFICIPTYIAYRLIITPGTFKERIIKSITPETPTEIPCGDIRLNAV
Protocol: as §1, §2

NET = target: T6, NET (Homo sapiens, UniProt P23975); assay: Concentration-dependent MPP+ uptake, NET-overexpressing HEK293 cells; format: in vitro ADME; details: this study
T6 construct: expressed in transfected cells; host or cells: HEK293
T6 sequence (P23975 whole entry): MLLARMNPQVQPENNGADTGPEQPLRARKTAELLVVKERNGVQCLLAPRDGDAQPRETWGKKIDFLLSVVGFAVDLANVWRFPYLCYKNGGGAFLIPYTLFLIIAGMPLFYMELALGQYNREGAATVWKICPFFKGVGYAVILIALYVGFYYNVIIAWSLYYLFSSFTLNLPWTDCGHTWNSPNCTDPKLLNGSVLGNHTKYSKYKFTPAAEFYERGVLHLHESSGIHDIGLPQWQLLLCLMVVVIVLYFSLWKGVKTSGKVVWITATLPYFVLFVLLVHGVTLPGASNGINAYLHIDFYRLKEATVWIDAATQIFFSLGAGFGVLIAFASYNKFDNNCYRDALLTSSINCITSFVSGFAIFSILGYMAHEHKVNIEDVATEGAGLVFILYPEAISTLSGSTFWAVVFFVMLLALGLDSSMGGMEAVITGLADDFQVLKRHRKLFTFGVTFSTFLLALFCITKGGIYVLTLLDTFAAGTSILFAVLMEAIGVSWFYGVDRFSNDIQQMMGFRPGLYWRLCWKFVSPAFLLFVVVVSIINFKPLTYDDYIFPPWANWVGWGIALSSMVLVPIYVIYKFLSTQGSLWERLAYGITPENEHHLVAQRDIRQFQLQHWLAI
Protocol: as §1, §2

[8] = OCT2, 20 μM inhibitor, 2 μM ASP+, 5 min
[9] = OCT2, 20 μM inhibitor, 2 μM N-ethyllidocaine, 5 min
[10] = 2 μM ASP+, mean of three experiments

What does the source list for CCC(CO)NCCNC(CC)CO [(S,S)-Ethambutol]?
Clint ± SEM (OCT1 [1]): 14.1; ASP+ inhibition [%] (OCT2 [2]; [8]): 38.8%; N-Ethyllidocaine inhibition [%] (OCT2 [2]; [9]): 10.0%; Clint ± SEM (OCT2 [3]): 36.6; Clint ± SEM (OCT3 [4]): 16.9; ASP+ inhibition [%] (OCT1 [5]; [10]): 5.5%; Sumatriptan inhibition [%] (OCT1 [5]; 2 μM sumatriptan): 17.8%; (S)-Zolmitriptan inhibition [%] (OCT3 [6]; OCT3, 2 μM (S)-zolmitriptan): -1.3%; ASP+ inhibition [%] (OCT3 [6]; OCT3, 2 μM ASP+): 3.7%

For CCN1CCC[C@H]1CNC(=O)c1cc(S(=O)(=O)CC)c(N)cc1OC [(S)-Amisulpride], which “Imax” value ([7]; amisulpride, single dose (50 mg)) is on record?
Its value is 0.182 µM.

What about the IC50 (OCT2 [2]) of the same molecule?
Its IC50 is 29.8 µM.

What about the “(S,S)-Ethambutol inhibition [%]” value (OCT2 [2]; OCT2, 20 μM inhibitor, 2 μM (S,S)-ethambutol, 5 min) of the same molecule?
The value was -13.2%.

What about the “ASP+ inhibition [%]” value (OCT2 [2]; [8]) of the same molecule?
Its value is 38.0%.

What about the “N-Ethyllidocaine inhibition [%]” value (OCT2 [2]; [9]) of the same molecule?
Its value is 1.9%.

And the selectivity ratio at 5 min (OCT2 [2]; human, OCT2-overexpressing HEK293 cells, pH 7.4)?
Its selectivity ratio at 5 min is 3.2.

And the “(S,S)-Ethambutol inhibition [%]” value (OCT1 [5]; 2 μM (S,S)-ethambutol)?
The value was 51.7%.

What about the “ASP+ inhibition [%]” value (OCT1 [5]; [10]) of the same molecule?
Its value is 23.5%.

What about the “Sumatriptan inhibition [%]” value (OCT1 [5]; 2 μM sumatriptan) of the same molecule?
Its value is 15.2%.

What about the “(S)-Zolmitriptan inhibition [%]” value (OCT3 [6]; OCT3, 2 μM (S)-zolmitriptan) of the same molecule?
The value was 46.0%.

What about the “(S,S)-Ethambutol inhibition [%]” value (OCT3 [6]; OCT3, 2 μM (S,S)-ethambutol) of the same molecule?
The value was 73.1%.

And the “ASP+ inhibition [%]” value (OCT3 [6]; OCT3, 2 μM ASP+)?
The value was 33.7%.

What does the source list for CN(C)c1ccc(C=Cc2cc[n+](C)cc2)cc1 [ASP+, 4-(4-(dimethylamino)styryl)-N-methylpyridinium]?
Km (OCT1 [1]; 2 min uptake, read-out: Km ± SEM): 11.7 µM; vmax ± SEM [pmol × mg Protein−1 × min−1] (OCT1 [1]): 2678 pmol × mg Protein−1 × min−1; Clint ± SEM (OCT1 [1]): 230; vmax ± SEM [pmol × mg Protein−1 × min−1] (OCT2 [3]): 1812 pmol × mg Protein−1 × min−1; Km (OCT2 [3]; read-out: Km ± SEM): 29.6 µM; Clint ± SEM (OCT2 [3]): 61.3; vmax ± SEM [pmol × mg Protein−1 × min−1] (OCT3 [4]): 3381 pmol × mg Protein−1 × min−1; Km (OCT3 [4]; read-out: Km ± SEM): 16.5 µM; Clint ± SEM (OCT3 [4]): 205

What does the source list for C[n+]1ccc(-c2ccccc2)cc1 [MPP+, 1-methyl-4-phenylpyridinium]?
vmax ± SEM [pmol × mg Protein−1 × min−1] (DAT): 2107 pmol × mg Protein−1 × min−1; Km (DAT; read-out: Km ± SEM): 20.1 µM; Clint ± SEM (DAT; vmax over Km): 104; vmax ± SEM [pmol × mg Protein−1 × min−1] (SERT): 627 pmol × mg Protein−1 × min−1; Km (SERT; read-out: Km ± SEM): 21.1 µM; Clint ± SEM (SERT; vmax over Km): 29.7; vmax ± SEM [pmol × mg Protein−1 × min−1] (NET): 381 pmol × mg Protein−1 × min−1; Km (NET; read-out: Km ± SEM): 2500 nM; Clint ± SEM (NET; vmax over Km): 152

Which results are given for CN(C)CCC[C@]1(c2ccc(F)cc2)OCc2cc(C#N)ccc21 [(R)-Citalopram]?
Imax ([7]; citalopram, multiple doses (40 mg, once daily for 21 d)): 0.228 µM; IC50 (OCT2 [2]): 17.8 µM; inhibition at 5 min, 20 μM (OCT2 [2]; human, OCT2-overexpressing HEK293 cells, pH 7.4, probe (S,S)-ethambutol (2 μM), (S,S)-Ethambutol inhibition [%], OCT2, 20 μM inhibitor, 2 μM (S,S)-ethambutol, 5 min): 1.4%; inhibition at 5 min, 20 μM (OCT2 [2]; human, OCT2-overexpressing HEK293 cells, pH 7.4, probe ASP+ (2 μM), ASP+ inhibition [%], OCT2, 20 μM inhibitor, 2 μM ASP+, 5 min): 52.1%; inhibition at 5 min, 20 μM (OCT2 [2]; human, OCT2-overexpressing HEK293 cells, pH 7.4, probe N-ethyllidocaine (2 μM), N-Ethyllidocaine inhibition [%], OCT2, 20 μM inhibitor, 2 μM N-ethyllidocaine, 5 min): 28.4%; inhibition at 5 min, 20 μM (OCT1 [5]; pH 7.4, probe (S,S)-ethambutol (2 μM), (S,S)-Ethambutol inhibition [%], 2 μM (S,S)-ethambutol): 72.8%; inhibition at 5 min, 20 μM (OCT1 [5]; pH 7.4, probe ASP+ (2 μM), 2 μM ASP+, mean of three experiments, read-out: ASP+ inhibition [%]): 28.9%; inhibition at 5 min, 20 μM (OCT1 [5]; pH 7.4, probe sumatriptan (2 μM), 2 μM sumatriptan, read-out: Sumatriptan inhibition [%]): 78%; inhibition at 20 µM (OCT3 [6]; HEK293, 5 min, read-out: (S)-Zolmitriptan inhibition [%], OCT3, 2 μM (S)-zolmitriptan): 11.8%; inhibition at 20 µM (OCT3 [6]; HEK293, 5 min, read-out: (S,S)-Ethambutol inhibition [%], OCT3, 2 μM (S,S)-ethambutol): 17.2%; inhibition at 20 µM (OCT3 [6]; HEK293, OCT3, 2 μM ASP+, read-out: ASP+ inhibition [%]): 4.5%
